# US20240398828A1, “HETERO-ATOM CONTAINING COMPOUNDS AND USES THEREOF” (Kumquat Biosciences Inc., priority 2021, published 2024)
# What was measured:
# PTPN2 (i.e., TC-PTP) = target: T1, PTPN2 (i.e., TC-PTP) (Homo sapiens, UniProt P17706); assay: Phosphatase activity assay (DiFMUP substrate), PTPN2; type: biochemical; conditions: compounds binned ≤1 uM or >1 uM
# T1 sequence (P17706 1-415): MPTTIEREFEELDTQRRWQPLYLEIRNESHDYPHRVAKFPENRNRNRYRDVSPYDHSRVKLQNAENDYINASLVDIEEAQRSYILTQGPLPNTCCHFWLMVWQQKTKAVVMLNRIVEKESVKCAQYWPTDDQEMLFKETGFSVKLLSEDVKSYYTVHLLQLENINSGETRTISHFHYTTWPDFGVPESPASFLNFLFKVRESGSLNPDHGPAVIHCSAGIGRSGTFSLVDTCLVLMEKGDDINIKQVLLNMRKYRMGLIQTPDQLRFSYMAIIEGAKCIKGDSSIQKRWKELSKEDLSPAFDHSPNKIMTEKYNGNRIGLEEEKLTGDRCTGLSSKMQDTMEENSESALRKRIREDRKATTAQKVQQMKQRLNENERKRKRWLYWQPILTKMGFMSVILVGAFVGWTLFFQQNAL
# Summary of the method: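 Using a Km-level DiFMUP substrate and 0.025 ng/ul PTPN2, phosphatase activity is tracked by DiFMU emission at 450 nm over about 15–30 minutes. Initial rates at ten inhibitor concentrations give IC50 by four-parameter fitting.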
# PTPN1 (i.e., PTP1B) = target: T2, PTPN1 (i.e., PTP1B) (Homo sapiens, UniProt P18031); assay: Phosphatase activity assay (DiFMUP substrate), PTP1B; type: biochemical; conditions: compounds binned ≤1 uM or >1 uM
# T2 sequence (P18031 1-435): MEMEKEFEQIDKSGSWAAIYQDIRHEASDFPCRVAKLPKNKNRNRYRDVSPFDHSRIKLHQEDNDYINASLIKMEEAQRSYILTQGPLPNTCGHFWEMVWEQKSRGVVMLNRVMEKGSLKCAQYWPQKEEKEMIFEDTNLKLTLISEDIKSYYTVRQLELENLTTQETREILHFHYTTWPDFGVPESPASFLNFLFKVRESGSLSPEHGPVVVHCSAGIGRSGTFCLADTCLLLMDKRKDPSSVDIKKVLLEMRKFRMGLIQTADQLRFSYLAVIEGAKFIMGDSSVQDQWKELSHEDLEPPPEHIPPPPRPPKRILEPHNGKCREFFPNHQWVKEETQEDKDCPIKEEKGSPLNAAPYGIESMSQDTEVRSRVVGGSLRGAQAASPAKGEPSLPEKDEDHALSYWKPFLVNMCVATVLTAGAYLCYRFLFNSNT
# Summary of the method: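 Continuous fluorogenic readout of DiFMUP dephosphorylation at room temperature, substrate set at Km for each phosphatase (about 45 μM in the PTPN2 assay). The buffer contains 1 mM DTT and 0.001% Tween-20, pH 7.5.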
Compound,"IC50 (PTPN2 (i.e., TC-PTP))","IC50 (PTPN1 (i.e., PTP1B))"
"O=C1CN(c2c(O)ccc(C3=CC(CO)NC3)c2F)S(=O)(=O)N1 (stereo not shown) [Compound 398, 5-(2-fluoro-6-hydroxy-3-(5-(hydroxymethyl)-2,5-dihydro-1H-pyrrol-3-yl)phenyl)-1,2,5-thiadiazolidin-3-one 1,1-dioxide]",≤ 1000 nM,≤ 1000 nM
"COC(=O)C1C=C(c2ccc(O)c(N3CC(=O)NS3(=O)=O)c2F)CN1 (stereo not shown) [Compound 399, methyl 4-(3-(1,1-dioxido-4-oxo-1,2,5-thiadiazolidin-2-yl)-2-fluoro-4-hydroxyphenyl)-2,5-dihydro-1H-pyrrole-2-carboxylate]",≤ 1000 nM,≤ 1000 nM
"O=C1C=C(c2c(O)ccc(-c3cc(C4CC4)n[nH]3)c2F)S(=O)(=O)N1 [Compound 400, 5-(3-(3-cyclopropyl-1H-pyrazol-5-yl)-2-fluoro-6-hydroxyphenyl)isothiazol-3(2H)-one 1,1-dioxide]",≤ 1000 nM,≤ 1000 nM
"O=C1CN(c2c(O)ccc(-c3cc(-c4ccccc4)no3)c2F)S(=O)(=O)N1 [Compound 401, 5-(2-fluoro-6-hydroxy-3-(3-phenylisoxazol-5-yl)phenyl)-1,2,5-thiadiazolidin-3-one 1,1-dioxide]",≤ 1000 nM,≤ 1000 nM
"O=C1CN(c2c(O)ccc(-c3ccc(NC(=O)C4CC4(F)F)cc3)c2F)S(=O)(=O)N1 (stereo not shown) [Compound 403, N-(3′-(1,1-dioxido-4-oxo-1,2,5-thiadiazolidin-2-yl)-2′-fluoro-4′-hydroxy-[1,1′-biphenyl]-4-yl)-2,2-difluorocyclopropane-1-carboxamide]",≤ 1000 nM,≤ 1000 nM
"O=C1CN(c2c(O)ccc(C3=CCN(S(=O)(=O)c4ccccc4)C3)c2F)S(=O)(=O)N1 [Compound 404, 5-(2-fluoro-6-hydroxy-3-(1-(phenylsulfonyl)-2,5-dihydro-1H-pyrrol-3-yl)phenyl)-1,2,5-thiadiazolidin-3-one 1,1-dioxide]",≤ 1000 nM,≤ 1000 nM
"CC1CC(c2ccc(O)c(N3CC(=O)NS3(=O)=O)c2F)CN1 (stereo not shown) [Compound 407, 5-(2-fluoro-6-hydroxy-3-(5-methylpyrrolidin-3-yl)phenyl)-1,2,5-thiadiazolidin-3-one 1,1-dioxide]",≤ 1000 nM,≤ 1000 nM
"O=C1CN(c2c(O)ccc(-c3cnn(C4CCC(O)CC4)c3)c2F)S(=O)(=O)N1 (stereo not shown) [Compound 408, 5-(2-fluoro-6-hydroxy-3-(1-(4-hydroxycyclohexyl)-1H-pyrazol-4-yl)phenyl)-1,2,5-thiadiazolidin-3-one 1,1-dioxide]",≤ 1000 nM,≤ 1000 nM
"O=C1CN(c2c(O)ccc(-c3cnn(C(F)(F)C(F)F)c3)c2F)S(=O)(=O)N1 [Compound 410, 5-(2-fluoro-6-hydroxy-3-(1-(1,1,2,2-tetrafluoroethyl)-1H-pyrazol-4-yl)phenyl)-1,2,5-thiadiazolidin-3-one 1,1-dioxide]",≤ 1000 nM,≤ 1000 nM
"O=C1CN(c2c(O)ccc(-c3cnn(C4CC5CCC(C4)N5C(=O)C4CC4)c3)c2F)S(=O)(=O)N1 (stereo not shown) [Compound 411, 5-(3-(1-(8-(cyclopropanecarbonyl)-8-azabicyclo[3.2.1]octan-3-yl)-1H-pyrazol-4-yl)-2-fluoro-6-hydroxyphenyl)-1,2,5-thiadiazolidin-3-one 1,1-dioxide]",≤ 1000 nM,≤ 1000 nM
"Cc1ccccc1-n1cnc(-c2ccc(O)c(N3CC(=O)NS3(=O)=O)c2F)c1 [Compound 418, 5-(2-fluoro-6-hydroxy-3-(1-(o-tolyl)-1H-imidazol-4-yl)phenyl)-1,2,5-thiadiazolidin-3-one 1,1-dioxide]",≤ 1000 nM,≤ 1000 nM
"O=C1CC(c2c(O)ccc(-c3cn(CC4CCCCC4)cn3)c2F)S(=O)(=O)N1 (stereo not shown) [Compound 419, 5-(3-(1-(cyclohexylmethyl)-1H-imidazol-4-yl)-2-fluoro-6-hydroxyphenyl)isothiazolidin-3-one 1,1-dioxide]",> 1000 nM,> 1000 nM
"O=C1CN(c2c(O)ccc(-c3cnn(CC4CC5CCC(C4)O5)c3)c2F)S(=O)(=O)N1 (stereo not shown) [Compound 422, 5-(3-(1-((8-oxabicyclo[3.2.1]octan-3-yl)methyl)-1H-pyrazol-4-yl)-2-fluoro-6-hydroxyphenyl)-1,2,5-thiadiazolidin-3-one 1,1-dioxide]",≤ 1000 nM,≤ 1000 nM

# The remaining lines, values ahead:
"IC50 (PTPN2 (i.e., TC-PTP))","IC50 (PTPN1 (i.e., PTP1B))",Compound
≤ 1000 nM,≤ 1000 nM,"O=C1CN(c2c(O)ccc(-c3cc(N4CCC5(CCN5)C4)n[nH]3)c2F)S(=O)(=O)N1 (stereo not shown) [Compound 396, 5-(3-(3-(1,6-diazaspiro[3.4]octan-6-yl)-1H-pyrazol-5-yl)-2-fluoro-6-hydroxyphenyl)-1,2,5-thiadiazolidin-3-one 1,1-dioxide]"
≤ 1000 nM,≤ 1000 nM,"CN(C)C1CCN(c2cc(-c3ccc(O)c(N4CC(=O)NS4(=O)=O)c3F)[nH]n2)C1 (stereo not shown) [Compound 397, 5-(3-(3-(3-(dimethylamino)pyrrolidin-1-yl)-1H-pyrazol-5-yl)-2-fluoro-6-hydroxyphenyl)-1,2,5-thiadiazolidin-3-one 1,1-dioxide]"
≤ 1000 nM,≤ 1000 nM,"O=C1CN(c2c(O)ccc(-c3cc(C4=CCOCC4)n[nH]3)c2F)S(=O)(=O)N1 [Compound 402, 5-(3-(3-(3,6-dihydro-2H-pyran-4-yl)-1H-pyrazol-5-yl)-2-fluoro-6-hydroxyphenyl)-1,2,5-thiadiazolidin-3-one 1,1-dioxide]"
≤ 1000 nM,≤ 1000 nM,"O=C1CN(c2c(O)ccc(C3=CCOCC3)c2F)S(=O)(=O)N1 [Compound 405, 5-(3-(3,6-dihydro-2H-pyran-4-yl)-2-fluoro-6-hydroxyphenyl)-1,2,5-thiadiazolidin-3-one 1,1-dioxide]"
≤ 1000 nM,≤ 1000 nM,"O=C1CN(c2c(O)ccc(-c3cnc(C4CC4)[nH]3)c2F)S(=O)(=O)N1 [Compound 406, 5-(3-(2-cyclopropyl-1H-imidazol-5-yl)-2-fluoro-6-hydroxyphenyl)-1,2,5-thiadiazolidin-3-one 1,1-dioxide]"
≤ 1000 nM,≤ 1000 nM,"O=C1CN(c2c(O)ccc(-c3cc(C4CC4)n(CC4CC4)n3)c2F)S(=O)(=O)N1 [Compound 409, 5-(3-(5-cyclopropyl-1-(cyclopropylmethyl)-1H-pyrazol-3-yl)-2-fluoro-6-hydroxyphenyl)-1,2,5-thiadiazolidin-3-one 1,1-dioxide]"
≤ 1000 nM,≤ 1000 nM,"O=C1CN(c2c(O)ccc(-c3cn(C4CCS(=O)(=O)CC4)cn3)c2F)S(=O)(=O)N1 [Compound 412, 5-(3-(1-(1,1-dioxidotetrahydro-2H-thiopyran-4-yl)-1H-imidazol-4-yl)-2-fluoro-6-hydroxyphenyl)-1,2,5-thiadiazolidin-3-one 1,1-dioxide]"
≤ 1000 nM,≤ 1000 nM,"O=C1CN(c2c(O)ccc(-c3cnn(C4CC5(CC5)C4)c3)c2F)S(=O)(=O)N1 [Compound 414, 5-(2-fluoro-6-hydroxy-3-(1-(spiro[2.3]hexan-5-yl)-1H-pyrazol-4-yl)phenyl)-1,2,5-thiadiazolidin-3-one 1,1-dioxide]"
≤ 1000 nM,≤ 1000 nM,"O=C1CN(c2c(O)ccc(-c3cc(CCC(F)(F)F)n[nH]3)c2F)S(=O)(=O)N1 [Compound 415, 5-(2-fluoro-6-hydroxy-3-(3-(3,3,3-trifluoropropyl)-1H-pyrazol-5-yl)phenyl)-1,2,5-thiadiazolidin-3-one 1,1-dioxide]"
≤ 1000 nM,≤ 1000 nM,"O=C1CN(c2c(O)ccc(-c3cc(N4CCC4)n[nH]3)c2F)S(=O)(=O)N1 [Compound 417, 5-(3-(3-(azetidin-1-yl)-1H-pyrazol-5-yl)-2-fluoro-6-hydroxyphenyl)-1,2,5-thiadiazolidin-3-one 1,1-dioxide]"
≤ 1000 nM,≤ 1000 nM,"O=C1CN(c2c(O)ccc(-c3cc(C4CCOCC4)n[nH]3)c2F)S(=O)(=O)N1 [Compound 420, 5-(2-fluoro-6-hydroxy-3-(3-(tetrahydro-2H-pyran-4-yl)-1H-pyrazol-5-yl)phenyl)-1,2,5-thiadiazolidin-3-one 1,1-dioxide]"
≤ 1000 nM,≤ 1000 nM,"O=C1CN(c2c(O)ccc(-c3cc(C4CC4)n[nH]3)c2F)S(=O)(=O)N1 [Compound 421, 5-(3-(3-cyclopropyl-1H-pyrazol-5-yl)-2-fluoro-6-hydroxyphenyl)-1,2,5-thiadiazolidin-3-one 1,1-dioxide]"
≤ 1000 nM,≤ 1000 nM,"O=C1CN(c2c(O)ccc(-c3cn(C4CCC(Br)CC4)cn3)c2F)S(=O)(=O)N1 (stereo not shown) [Compound 423, 5-(3-(1-(4-bromocyclohexyl)-1H-imidazol-4-yl)-2-fluoro-6-hydroxyphenyl)-1,2,5-thiadiazolidin-3-one 1,1-dioxide]"
